Results published in ChEMBL document CHEMBL3885881, “DrugMatrix”.

Species: Rattus norvegicus
Test: DrugMatrix - Regimen: Daily Repeat
Type: toxicity, organism-based, Sprague-Dawley
Parameters: regimen Daily Repeat, gender Male, age 6-8 weeks
Conditions: in vivo, iv, vehicle 100 % SALINE; for ABSOLUTE BASOPHIL / ABSOLUTE EOSINOPHIL / ABSOLUTE LYMPHOCYTE / ABSOLUTE MONOCYTE / ABSOLUTE SEGMENTED NEUTROPHIL / BASOPHIL / EOSINOPHIL / ERYTHROCYTE COUNT / HEMATOCRIT / HEMOGLOBIN / LEUKOCYTE COUNT / LYMPHOCYTE / MEAN CORPUSCULAR HEMOGLOBIN / MEAN CORPUSCULAR HEMOGLOBIN CONCENTRATION / MEAN CORPUSCULAR VOLUME / MONOCYTE / NUCLEATED RED BLOOD CELLS / PLATELET COUNT: tissue Blood; for ALANINE AMINOTRANSFERASE / ALBUMIN / ALKALINE PHOSPHATASE / ASPARTATE AMINOTRANSFERASE / BLOOD UREA NITROGEN / CARBON DIOXIDE / CHLORIDE / CHOLESTEROL / CREATINE PHOSPHOKINASE / CREATININE / GLUCOSE / LACTATE DEHYDROGENASE / PHOSPHORUS / POTASSIUM / SODIUM / TOTAL BILIRUBIN / TOTAL PROTEIN / URIC ACID: tissue Plasma
[1] = 25 mg/kg, 72 h, dose level Low, time 3 day
[2] = 25 mg/kg, 120 h, dose level Low, time 5 day
[3] = 160 mg/kg, 72 h, dose level High, time 3 day
[4] = 160 mg/kg, 120 h, dose level High, time 5 day

## CN[C@H](CC(C)C)C(=O)N[C@H]1C(=O)N[C@@H](CC(N)=O)C(=O)N[C@H]2C(=O)N[C@H]3C(=O)N[C@H](C(=O)N[C@H](C(=O)O)c4cc(O)cc(O)c4-c4cc3ccc4O)[C@H](O)c3ccc(c(Cl)c3)Oc3cc2cc(c3O[C@@H]2O[C@H](CO)[C@@H](O)[C@H](O)[C@H]2O[C@H]2C[C@](C)(N)[C@H](O)[C@H](C)O2)Oc2ccc(cc2Cl)[C@H]1O [VANCOMYCIN]
[1]
  ABSOLUTE BASOPHIL: 0 CELLS/uL
  ABSOLUTE EOSINOPHIL: 39.33 CELLS/uL
  ABSOLUTE LYMPHOCYTE: 11516.33 CELLS/uL
  ABSOLUTE MONOCYTE: 255.67 CELLS/uL
  ABSOLUTE SEGMENTED NEUTROPHIL: 1222 CELLS/uL
  BASOPHIL: 0%
  EOSINOPHIL: 0.33%
  ERYTHROCYTE COUNT: 5.26 x10E6/uL
  HEMATOCRIT: 34.27%
  HEMOGLOBIN: 13.57 G/DL
  LEUKOCYTE COUNT: 13.03 x10E3/uL
  LYMPHOCYTE: 88.33%
  MEAN CORPUSCULAR HEMOGLOBIN: 25.87 pg
  MEAN CORPUSCULAR HEMOGLOBIN CONCENTRATION: 39.63 G/DL
  MEAN CORPUSCULAR VOLUME: 65.13 fL
  MONOCYTE: 2%
  NUCLEATED RED BLOOD CELLS: 0 /100WBC
  PLATELET COUNT: 1239 x10E3/uL
  ALANINE AMINOTRANSFERASE: 49 u/L
  ALBUMIN: 4.13 G/DL
  ALKALINE PHOSPHATASE: 403 u/L
  ASPARTATE AMINOTRANSFERASE: 88 u/L
  BLOOD UREA NITROGEN: 17.67 mg/dL
  CARBON DIOXIDE: 28 mmol/L
  CHLORIDE: 100.67 MEQ/L
  CHOLESTEROL: 67.33 mg/dL
  CREATINE PHOSPHOKINASE: 365.67 u/L
  CREATININE: 0.22 mg/dL
  GLUCOSE: 144 mg/dL
  LACTATE DEHYDROGENASE: 331.67 u/L
  PHOSPHORUS: 12.13 mg/dL
  POTASSIUM: 6.95 MEQ/L
  SODIUM: 142.77 MEQ/L
  TOTAL BILIRUBIN: 0.23 mg/dL
  TOTAL PROTEIN: 5.77 G/DL
  URIC ACID: 1.33 mg/dL
[2]
  ABSOLUTE BASOPHIL: 0 CELLS/uL
  ABSOLUTE EOSINOPHIL: 41.33 CELLS/uL
  ABSOLUTE LYMPHOCYTE: 15492.33 CELLS/uL
  ABSOLUTE MONOCYTE: 306.33 CELLS/uL
  ABSOLUTE SEGMENTED NEUTROPHIL: 660 CELLS/uL
  BASOPHIL: 0%
  EOSINOPHIL: 0.33%
  ERYTHROCYTE COUNT: 5.54 x10E6/uL
  HEMATOCRIT: 34.03%
  HEMOGLOBIN: 13.7 G/DL
  LEUKOCYTE COUNT: 16.5 x10E3/uL
  LYMPHOCYTE: 94%
  MEAN CORPUSCULAR HEMOGLOBIN: 24.73 pg
  MEAN CORPUSCULAR HEMOGLOBIN CONCENTRATION: 40.23 G/DL
  MEAN CORPUSCULAR VOLUME: 61.4 fL
  MONOCYTE: 1.67%
  NUCLEATED RED BLOOD CELLS: 0.33 /100WBC
  PLATELET COUNT: 1313.33 x10E3/uL
  ALANINE AMINOTRANSFERASE: 58.33 u/L
  ALBUMIN: 4.03 G/DL
  ALKALINE PHOSPHATASE: 397.67 u/L
  ASPARTATE AMINOTRANSFERASE: 92.67 u/L
  BLOOD UREA NITROGEN: 17.67 mg/dL
  CARBON DIOXIDE: 31.33 mmol/L
  CHLORIDE: 100 MEQ/L
  CHOLESTEROL: 76.33 mg/dL
  CREATINE PHOSPHOKINASE: 598 u/L
  CREATININE: 0.26 mg/dL
  GLUCOSE: 165.33 mg/dL
  LACTATE DEHYDROGENASE: 117 u/L
  PHOSPHORUS: 11.5 mg/dL
  POTASSIUM: 6.64 MEQ/L
  SODIUM: 144.23 MEQ/L
  TOTAL BILIRUBIN: 0.17 mg/dL
  TOTAL PROTEIN: 5.87 G/DL
  URIC ACID: 1.3 mg/dL
[3]
  ABSOLUTE BASOPHIL: 0 CELLS/uL
  ABSOLUTE EOSINOPHIL: 0 CELLS/uL
  ABSOLUTE LYMPHOCYTE: 10993 CELLS/uL
  ABSOLUTE MONOCYTE: 34 CELLS/uL
  ABSOLUTE SEGMENTED NEUTROPHIL: 1339.67 CELLS/uL
  BASOPHIL: 0%
  EOSINOPHIL: 0%
  ERYTHROCYTE COUNT: 5.96 x10E6/uL
  HEMATOCRIT: 37.17%
  HEMOGLOBIN: 14.47 G/DL
  LEUKOCYTE COUNT: 12.37 x10E3/uL
  LYMPHOCYTE: 88.67%
  MEAN CORPUSCULAR HEMOGLOBIN: 24.27 pg
  MEAN CORPUSCULAR HEMOGLOBIN CONCENTRATION: 38.97 G/DL
  MEAN CORPUSCULAR VOLUME: 62.4 fL
  MONOCYTE: 0.33%
  NUCLEATED RED BLOOD CELLS: 0 /100WBC
  PLATELET COUNT: 1496.67 x10E3/uL
  ALANINE AMINOTRANSFERASE: 47.33 u/L
  ALBUMIN: 4.57 G/DL
  ALKALINE PHOSPHATASE: 338 u/L
  ASPARTATE AMINOTRANSFERASE: 86.67 u/L
  BLOOD UREA NITROGEN: 22 mg/dL
  CARBON DIOXIDE: 32 mmol/L
  CHLORIDE: 99 MEQ/L
  CHOLESTEROL: 76 mg/dL
  CREATINE PHOSPHOKINASE: 389.67 u/L
  CREATININE: 0.21 mg/dL
  GLUCOSE: 156.33 mg/dL
  LACTATE DEHYDROGENASE: 197.67 u/L
  PHOSPHORUS: 12.37 mg/dL
  POTASSIUM: 6.51 MEQ/L
  SODIUM: 142.77 MEQ/L
  TOTAL BILIRUBIN: 0.17 mg/dL
  TOTAL PROTEIN: 6.4 G/DL
  URIC ACID: 2.33 mg/dL
[4]
  ABSOLUTE BASOPHIL: 0 CELLS/uL
  ABSOLUTE EOSINOPHIL: 126 CELLS/uL
  ABSOLUTE LYMPHOCYTE: 16262 CELLS/uL
  ABSOLUTE MONOCYTE: 538.67 CELLS/uL
  ABSOLUTE SEGMENTED NEUTROPHIL: 2873.33 CELLS/uL
  BASOPHIL: 0%
  EOSINOPHIL: 0.67%
  ERYTHROCYTE COUNT: 5.73 x10E6/uL
  HEMATOCRIT: 35.13%
  HEMOGLOBIN: 14.03 G/DL
  LEUKOCYTE COUNT: 19.8 x10E3/uL
  LYMPHOCYTE: 82.33%
  MEAN CORPUSCULAR HEMOGLOBIN: 24.47 pg
  MEAN CORPUSCULAR HEMOGLOBIN CONCENTRATION: 40 G/DL
  MEAN CORPUSCULAR VOLUME: 61.27 fL
  MONOCYTE: 2.67%
  NUCLEATED RED BLOOD CELLS: 0 /100WBC
  PLATELET COUNT: 1243.33 x10E3/uL
  ALANINE AMINOTRANSFERASE: 47.33 u/L
  ALBUMIN: 3.73 G/DL
  ALKALINE PHOSPHATASE: 287.33 u/L
  ASPARTATE AMINOTRANSFERASE: 77.33 u/L
  BLOOD UREA NITROGEN: 29.67 mg/dL
  CARBON DIOXIDE: 27.67 mmol/L
  CHLORIDE: 99.33 MEQ/L
  CHOLESTEROL: 72.33 mg/dL
  CREATINE PHOSPHOKINASE: 467.33 u/L
  CREATININE: 0.34 mg/dL
  GLUCOSE: 139 mg/dL
  LACTATE DEHYDROGENASE: 171.67 u/L
  PHOSPHORUS: 10.27 mg/dL
  POTASSIUM: 6.39 MEQ/L
  SODIUM: 143.07 MEQ/L
  TOTAL BILIRUBIN: 0.13 mg/dL
  TOTAL PROTEIN: 6.03 G/DL
  URIC ACID: 1.4 mg/dL
